Patent US20220218736A1, “NEW THERAPY” (INDEX PHARMACEUTICALS AB, priority 2018, published 2022)
Oligonucleotides are written 5' to 3', each unit as a sugar letter and its base; * is a phosphorothioate linkage, no mark a phosphodiester; rarer units and linkages stand in square brackets, end groups in braces. Plain capitals give the bases only. d = 2'-deoxy (DNA)

Legend:
[1] = tested on: chronic DSS-induced colitis; experiment: Chronic DSS-induced mouse model of colitis; colon length and weight/length ratio; assay type: in vivo, C57BL/6 mice; conditions: Day 30; for colon-shortening effects of DSS (colon length): Days 4-28 every 4 days
Text: The objective of this study was to test the efficacy of cobitolimod as a maintenance therapy in the chronic DSS-induced mouse model of colitis.
37 male C57BL/6 mice were enrolled in the chronic DSS-induced colitis study and housed for a stabilization period of 5 days prior to the study. All animals were housed in HEPA-ventilated cages with sani-chips bedding. Domes and sterile cotton scratch pads were provided for enrichment. Fluorescent lighting was provided on a 12-hour cycle. Temperature and humidity were monitored and recorded daily and maintained to 20-23° C. temperature, and 30-70% relative humidity. 2018S 18% protein rodent maintenance diet was provided ad libitum.
Cobitolimod was diluted in saline either to 125 μg/100μ1 (1.25 μg/μl, dose 1) or 500 μg/100 μl (5 μg/μl, dose 2) in the beginning of the experiment. The solution was aliquoted and kept at 4° C. for the duration of the experiment. At each administration day 100 μl was administered to the mice rectally. FTY-720 (S1P1 receptor inhibitor) was dissolved in dH2O and served as positive control. For a dose of 1 mg/kg, using an average body weight of 30 grams, the compound was prepared and 100 μL orally dosed daily to each animal.
9 week old mice received 2% DSS dissolved into autoclaved water ad libitum (Group 2-5, n=8 each per group) for 5 days, and were switched to autoclaved drinking water for the next five days. This cycle was repeated, alternating between DSS treatment and autoclaved water, every five days for a duration of 30 days in total. During each 5-Day DSS treatment phase, fresh 2% DSS was provided on the third day of the five-day cycle. Group 1 (n=5) served as a control (naïve mice) that received only autoclaved water ad libitum throughout the study. On Day 4, mice in Group 3 (n=8) were orally dosed with FTY-720 as positive control (Group 3, n=8) and continued daily dose until end of the study. Also starting on Study Day 4, animals were dosed with Vehicle (Group 2, […]), or with two different doses of cobitolimod (Group 4 and Group 5, n=8 per group) intrarectally. […] Groups 2, 4, and 5 were dosed again on Days 8, 12, 16, 20, 24, and 28.
Body weight, stool consistency, stool blood, body condition score, and physical health were recorded on dosing days, and two days after each dosing day from at Day 0 through termination on Study Day 30. […] Animals that lost greater than 20% of their pre-treatment body weight were monitored and fed diet/hydro gel for 72 hrs. No animals were terminated due to prolonged body weight loss, or signs of pain and distress due to disease.
The study was terminated on Day 30, and necropsy was performed on all animals. Spleens were weighed and then discarded. Colon length and weight was recorded, and the weight/length ratio calculated for each animal. […]

[2] = tested on: patient with ulcerative colitis refractory to steroids and immunosuppressive therapies; experiment: Compassionate use program, patient p12; colitis activity index (CAI) course; assay type: in vivo, human
Text: This example relates to unpublished experimental data that was collected as part of a compassionate use program. A diagnosis of ulcerative colitis was established based on clinical, endoscopic and histological features. Written consent was received for the patient and the treatment approved by the relevant local ethics committee.
The patient was a person who was first diagnosed with ulcerative colitis 5 years previously and who had become refractory to steroids and immunosuppressive therapies (GCS, infliximab and natural IFN-β). In the form of an experimental add-on therapy, relapses were treated for 4 years with natural Interferon-beta (Fiblaferon). […] A severe relapse in January 2010 was treated with high doses of steroids in combination with azathioprine and 5-ASA without success. […] The treatment with a high dose of steroid in combination with Infliximab had some effect in reducing the CAI score from 14 to 9 in March 2010. However, the subject was still in a very active state of the disease. […]
The patient received 3 doses of 30 mg cobitolimod diluted in 50 mL of sterile water at 4 week intervals as an add on to current therapies. Application of drug was performed during colonoscopy with the aid of a spraying catheter inserted through the colonoscopies biopsy channel and delivered approximately to the upper portion of the descending colon or to the transverse region.
Depicted is the colitis activity index [CAI] against the time in months. […] 2011 when the treating physician last contacted all the patients to follow-up on the treatments.

[3] = tested on: patients with moderate-to-severe active UC; experiment: Randomized, double-blind, placebo-controlled clinical trial of cobitolimod; symptomatic remission; assay type: in vivo, human
Protocol: In this randomized, double-blind, placebo-controlled trial, 131 patients with moderate-to-severe active UC were randomized to receive two single doses of the oligonucleotide cobitolimod [30 mg] or placebo administered topically during lower GI endoscopy at baseline and Week 4. The primary endpoint was clinical remission, defined as Clinical Activity (Rachmilewitz) Index [CAI]≤4, at Week 12. Secondary endpoints included mucosal healing and symptomatic remission of key patient-reported outcomes [absence of blood in stool and weekly stool frequency <35].
Eligible patients were adults with moderate to severely active ulcerative colitis with a Clinical Activity Index [CAI] of ≥9 and an endoscopic Mayo score of ≥2, despite treatment with glucocorticosteroids [GCS] [prednisolone] equivalent ≥10 mg/day] for ≥2 weeks prior to inclusion, and previously having failed or been intolerant to treatment with mesalazine ≥2.4 g/day for ≥4 weeks, GCS with at least 0.75 mg/kg as a starting dose, azathioprine or mercaptopurine for ≥3 months, and/or one adequate treatment course of a TNF-α inhibitor. Patients may have tried treatment with cyclosporine or tacrolimus before the trial. Four patients in the placebo group [9.3%] and 5 patients in the cobitolimod group [6.2%] had used cyclosporine prior to the study start, but not in the study.
During the trial, patients could be taking sulfasalazine, aminosalicylates, or thiopurines, and should be on oral GCS at stable doses. Concurrent therapies with cyclosporine, tacrolimus or TNF-α inhibitors during the trial or in the 4 weeks before enrolment, or antibiotics or non-steroidal anti-inflammatory drugs [NSAIDs] in the 2 weeks before enrolment were not permitted.
Eligible patients were randomized in a 2:1 ratio to receive administration of cobitolimod via endoscopy [30 mg] at Week 0 and 4, or matching placebo diluted in 50 mL of sterile water after adequate bowel cleaning for stool content. The application was done proximally to the site of mucosal inflammation, or in the transverse section of the colon in the event of extensive colitis, using a spray catheter during endoscopy. Patients were asked to remain recumbent for 2 h after administration. Patients were followed up with visits after 1, 4, 8, 12, 22, and 52 weeks. At Weeks 0, 4, and 12, patients underwent endoscopic evaluation and biopsies were taken from the most inflamed mucosal area. ICON [Texas, USA] produced the randomization code by a computer-generated procedure, which used the method of randomly permuted blocks. Oral GCS treatment was mandatory at a stable daily dose of >10 mg initiated at least 2 weeks prior to inclusion. Steroid tapering was done to a standard tapering schedule according to European Crohn's and Colitis Organisation [ECCO] guidelines when the patient had reached clinical remission, the earliest at Week 12.
The primary endpoint was induction of clinical remission at Week 12, defined as a CAI score of ≤4. […] Secondary endpoints included mucosal healing [endoscopic Mayo sub-score ≤1, endoscopies not centrally read]; clinical remission at Weeks 1, 4, 8, 22 and 52; clinical remission and mucosal healing; symptomatic remission [defined as absence of blood in stool and weekly stool frequency of <35]; histological Geboes score at Week 4 and 12 as assessed by a single trial histopathologist; time to colectomy; and quality of life based on the inflammatory bowel disease questionnaire [IBDQ] and the 36-item short-form survey [SF36] score. Post hoc, the combined score for subjects who achieved both symptomatic remission and mucosal healing was defined.

[4] = second multi-dose regime, until March 2011

Substance: 5′-G*G*A*ACAGTTCGTCCAT*G*G*C-3′ (SEQ ID NO:1) (DNA dG*dG*dA*dAdCdAdGdTdTdCdGdTdCdCdAdT*dG*dG*dC) [cobitolimod]
- colon-shortening effects of DSS (colon length) ([1]; 125 μg intrarectally): significantly reduced
- colonic weight/length ratio ([1]; 125 μg intrarectally): decreased
- colon-shortening effects of DSS (colon length) ([1]; 500 μg intrarectally): reduced
- colonic weight/length ratio ([1]; 500 μg intrarectally): decreased
- time patient kept in remission by repeat dosing ([2]; first multi-dose regime (May, June and July)): 3 months
- time complete clinical remission was further maintained ([2]; first multi-dose regime, after week 4, with last dose and steroid tapering): two
- drop in the CAI score ([2]; one week after first 30 mg dose, add-on to current therapies): 4 points
- time to clinical remission ([2]; second multi-dose regime started 25 Aug. 2010): ≤ 4 weeks
- time complete clinical remission was maintained [2, 4]: 5 months
- time patient kept in remission by repeat dosing [2, 4]: over five
- remission status ([2]; week 4 of first multi-dose regime, with continued steroid tapering): complete remission
- remission status ([2]; week 8 of second multi-dose regime): complete clinical remission
- delta between active drug and placebo, symptomatic remission ([3]; week 4): 18.1%
- percentage of patients in symptomatic remission ([3]; week 4, 30 mg at week 0, topically during endoscopy): 32.1%
- delta between active drug and placebo, symptomatic remission ([3]; week 8): 16.8%
- percentage of patients in symptomatic remission ([3]; week 8, 30 mg at weeks 0 and 4): 28.4%
- decrease in percentage of patients in remission ([3]; week 8 as compared to week 4): 3.7%
- delta between active drug and placebo, symptomatic remission ([3]; week 12): 11.8%
- percentage of patients in symptomatic remission ([3]; week 12, 30 mg at weeks 0 and 4, no dose at week 8): 23.5%
- decrease in percentage of patients in remission ([3]; week 12 as compared to week 8): 4.9%

Substance: Infliximab: TNF-α inhibitor approved for the treatment of moderate to severe ulcerative colitis [reference compound]
- CAI score after treatment ([2]; high dose of steroid in combination with Infliximab, reduced from 14, March 2010): 9
- adverse event after treatment ([2]; one dose at the end of January, event in February 2010): severe salmonellosis with septicemia
